The test system of test [1] is IFNγ induced ICAM-1 (CD54) up-regulation in U937 human monocytic cells (JAK/Stat pathway). Briefly: U937 IFNγ ICAM1 FACS Assay. The note with it: Table III Example 6; 10 ng/mL IFNγ, 18-24 hours. It counts as cell-based. The essentials:
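Flow cytometry gave ICAM-1 (CD54) up-regulation as ICAM-APC geometric mean within the live-cell gate, alongside % viable cells. Human monocytic U937 cells received 3-fold serial compound dilutions for 30 min at 37 °C, followed by IFNγ stimulation lasting 18–24 h. Dose curves yielded EC50s.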

Test [2] deals with IFNγ induced ICAM-1 (CD54) up-regulation in A549 lung epithelial cells (JAK/Stat pathway). In words: A549 Epithelial Line Stimulated with IFNγ (ICAM-1 surface expression, flow cytometry). The class given is cell-based, human. The note with it: Table III Example 5. The essentials:
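A549 cells (20,000/well, adhered overnight) pre-treated with compound 1 h, then IFNγ 75 ng/mL for 24 h; compound 30 μM–14 nM in 5% FBS, 0.3% DMSO. Surface ICAM-1 stained with APC anti-CD54, geometric mean by flow cytometry; dose-response gives EC50.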
A general note: A flow cytometer gives signals particle by particle.

One may read the IC50 as the concentration that gives 50% inhibition.

SMILES strings stand for the structures.

For the molecule `CNS(=O)(=O)c1ccc(Nc2ncc(C)c(Nc3cccc(CNS(=O)(=O)C4CC4)c3)n2)cc1` [Compound I-207, N4-(3-cyclopropylsulfonylaminomethyl)phenyl-5-methyl-N2-(4-methylaminosulfonyl)phenyl-2,4-pyrimidinediamine], the values for the IC50 in test [1] and in test [2] were 312 nM and 6110 nM, respectively.
The corresponding values for `CCNS(=O)(=O)c1cccc(Nc2ncc(C)c(Nc3cccc(CNS(=O)(=O)C4CC4)c3)n2)c1` [Compound I-208, N4-(3-cyclopropylsulfonylaminomethyl)phenyl-N2-(3-ethylaminosulfonyl)phenyl-5-methyl-2,4-pyrimidinediamine] are 257 nM and 1300 nM.
On to `COCCNS(=O)(=O)c1cc(Nc2ncc(C)c(Nc3cccc(CNS(=O)(=O)C4CC4)c3)n2)ccc1C` [Compound I-210, N4-(3-cyclopropylsulfonylaminomethyl)phenyl-N2-[3-(2-methoxyethyl)aminosulfonyl-4-methyl]phenyl-5-methyl-2,4-pyrimidinediamine], for which the concentration for half-maximal inhibition (IC50) in test [1] came out at 175 nM; in test [2] it was 2470 nM.
As to `Cc1cnc(Nc2ccc(S(N)(=O)=O)cc2)nc1Nc1ccc2c(c1)CCN(S(=O)(=O)C1CC1)C2` [II-1, N2-(4-aminosulfonyl)phenyl-N4-[(N-cyclopropylsulfonyl)-1,2,3,4-tetrahydroisoquinolin-6-yl]-5-methyl-2,4-pyrimidinediamine], the IC50 came to 229 nM in test [1] and 18300 nM in test [2].
The like results for `Cc1ccc(Nc2ncc(C)c(Nc3ccc4c(c3)CCN(S(=O)(=O)C3CC3)C4)n2)cc1S(N)(=O)=O` [II-3, N2-(3-aminosulfonyl-4-methyl)phenyl-N4-[(N-cyclopropylsulfonyl)-1,2,3,4-tetrahydroisoquinolin-6-yl]-5-methyl-2,4-pyrimidinediamine] were, in that order, 87.9 nM and 12400 nM.
For `Cc1cnc(Nc2cccc(S(N)(=O)=O)c2)nc1Nc1ccc2c(c1)CN(S(=O)(=O)C1CC1)C2` [II-8, N2-(3-Aminosulfonyl-phenyl)-N4-[(2-cyclopropylsulfonyl)-isoindolin-5-yl]-5-methyl-2,4-pyrimidinediamine], the IC50 in test [1] amounted to 775 nM; in test [2], 17800 nM.

(Values after patent publication US9481654B2, “Compositions and methods for inhibition of the JAK pathway” (Rigel Pharmaceuticals, Inc., priority 2006, dated 2016).)
